# Results: patent publication US20150258096A1, “METHODS AND COMPOSITIONS FOR TREATMENT OF TH2-MEDIATED AND TH17-MEDIATED DISEASES” (THE REGENTS OF THE UNIVERSITY OF CALIFORNIA, priority 2012, published 2015)
# Tests used:
# WT CD11c^+ BM cells = experiment: Co-culture of WT CD11c+ BM cells with OT-2 CD4+ T cells, IL-4 by ELISA (pro-Th2 phenotype); format: cell-based, mouse; conditions: H-89 10 μM; CE3F4 50 μM or 25 μM (method); 30 min at 37° C.; FIG. 9b
# Procedure: Cytokine levels in the supernatant were determined using ELISA kits for IL-4, IL-5, IL-13, IL-10, IFNγ, TNFα and IL-17A (eBioscience, La Jolla, Calif.) following the manufacturers' instructions as published^17.
# WT BM-derived CD11c^+ cells were cultured and then incubated with a PKA inhibitor (H-89, 10 μM), with or without pretreatment with pertussis toxin (PTX, 100 μg/ml, 18 h), or with EPAC inhibitor (CE3F4, 25 μM) for 30 min at 37° C., then washed and co-cultured with OT-2 T cells.
# [1] = tested on: CCL2 expression in Gnas^ΔCD11c CD11c^+ BM cells; experiment: CCL2 mRNA levels (qPCR) in CD11c+ BM cells; format: cell-based, mouse; conditions: Gnas^ΔCD11c CD11c+ BM cells incubated with 8-CPT-cAMP 50 μM; FIG. 9g
# Procedure: Isolation of RNA was carried out using an RNeasy Mini Kit (QIAGEN, Valencia, Calif.) according to the manufacturer's instructions. The cDNA was synthesized using Superscript III First-Strand system (Invitrogen). Quantitative PCR analysis was performed as described previously^54. SYBR Green PCR Master Mix was used for real-time PCR (7300 system, Applied Biosystems). Samples were run in triplicate and normalized by a housekeeping gene (mouse GAPDH).
# [2] = tested on: WT (B6) and Gnas^ΔCD11c recipient mice; experiment: Adoptive transfer of OVA-loaded Gnas^ΔCD11c CD11c+ BM cells treated with or without 8-CPT-cAMP; format: in vivo, mouse; conditions: BM cells treated in vitro with 50 μM 8-CPT-cAMP before i.n. transfer, 2×10^5 cells/recipient
# Procedure: FIG. 14: Adoptive transfer of CD11c^+ BM cells from Gnas^ΔCD11c mice induces a Th2 bias in vivo, a response that is inhibited by a cell-permeable cAMP analogue: (a) OVA-specific IL-4 response by OT-2 CD4^+ T cells co-cultured with cell-permeable cAMP (8-CPT-cAMP, 50 μM)-treated CD11c^+ BM cells, (b) Protocol of the adoptive transfer. OVA-loaded Gnas^ΔCD11c CD11c^+ BM cells were incubated in the absence and presence of 50 μM 8-CPT-cAMP (CPT) in vitro prior to i.n. transfer to WT (B6 mice) and Gnas^ΔCD11c recipients (2×10^5 cells/recipient), (c) IL-4 levels of anti-CD3/28 Ab-stimulated CD4^+ T cells (spleen) from WT or Gnas^ΔCD11c recipients (ELISA), (d) Serum levels of IgE and IgG1 from WT and Gnas^ΔCD11c mice that received Gnas^ΔCD11c CD11c^+ BM cells loaded with OVA with/without CPT, (e) Lung histology from WT and Gnas^ΔCD11c recipients (magnification ×100, scale bar: 100 μm) (Data are mean±s.e.m, n=3-4 in each group; * p<0.05, ** p<0.01, p<0.001).
# Adoptive transfer of OVA-pulsed Gnas^ΔCD11c CD11c^+ BM cells into mice was performed as described previously^55. […] 1 day after the last OVA challenge, mice were sacrificed and assessed by lung histology, measurement of serum immunoglobulins and cytokine production.
# [3] = tested on: Gnas^ΔCD11c CD11c^+ BM cells; experiment: Co-culture of Gnas^ΔCD11c CD11c+ BM cells with OT-2 CD4+ T cells, IL-4 by ELISA (pro-Th2 phenotype); format: cell-based, mouse
# Procedure: For the inhibition of Th2 response by cAMP, fl/fl or Gnas^ΔCD11c BM-derived CD11c^+ cells were cultured as above, then, incubated with 8-CPT-cAMP (50 μM) for 24 h, washed and then co-cultured with OT-2 T cells.
# Wild-type B6 mice = experiment: Immunization with OVA, alum and cAMP-elevating agent; OVA-specific IL-17 (ELISA); format: in vivo, mouse; conditions: i.p. twice two weeks apart, OVA 50 μg/mice with alum; colforsin 1 mg/kg, IBMX 5 mg/kg; spleen cells of day 28 incubated 3 days with OVA; FIG. 16
# Procedure: FIG. 16 cAMP agents provoke IL-17 responses: Wild-type B6 mice were immunized intraperitoneally (i.p.) twice two weeks apart with OVA (50 μg/mice) with and without alum (20 mg/mice), and colforsin (CF; a cAMP elevating drug that is approved for human use in Japan, 1 mg/kg), IBMX (a PDE inhibitor, 5 mg/kg), or solvent only as a control; on day 28, single-cell suspensions were prepared from the spleens and incubated for 3 days with OVA (200 μg/mL) as we described earlier (16); IL-17 levels were then detected (ELISA); *p<0.05 and **p<0.01 compared with OVA/alum-immunized group, n=4/group.
# Based on the data presented above, co-immunization with antigen and a cAMP-elevating agent can induce a Th17 response. To promote stimulation of the same DC with antigen and cAMP agent, both were adsorbed to alum, an adjuvant used in humans (22), and immunized C57BL/6 (B6) mice with the combination.
compound,measurement,setting,value
CC1CCc2c(cc(Br)c(F)c2Br)N1C=O (stereo not drawn) [CE3F4],pro-Th2 phenotype of WT CD11c+ BM cells (IL-4 levels of co-cultured OT-2 CD4+ T cells),WT CD11c^+ BM cells,"but not with an EPAC inhibitor (CE3F4), promoted their pro-Th2 phenotype"
"Nc1ncnc2c1nc(Sc1ccc(Cl)cc1)n2[C@@H]1O[C@@H]2COP(=O)([O-])O[C@H]2[C@H]1O.[Na+] [CPT, 8-(4-Chlorophenylthio) adenosine 3′,5′-cyclic monophosphate sodium salt]","CCL2 expression (mRNA, qPCR)",[1],decreased CCL2 expression
same,"development of Th2 bias in recipients (IL-4 of splenic CD4+ T cells, serum IgE)",[2]; FIG. 14c-d,inhibited development of Th2 bias
same,airway inflammation in recipients (lung histology),[2]; FIG. 14e,inhibited development of Th2 bias and airway inflammation
same,IL-4 production by OT-2 CD4+ T cells co-cultured with treated Gnas^ΔCD11c BM cells,"[3]; 8-CPT-cAMP 50 μM, 24 h, in vitro, FIG. 14a",abolished the subsequent IL-4 production
O=S(=O)(NCCNC/C=C/c1ccc(Br)cc1)c1cccc2cnccc12 [H-89],pro-Th2 phenotype of WT CD11c+ BM cells (IL-4 levels of co-cultured OT-2 CD4+ T cells),WT CD11c^+ BM cells,promoted their pro-Th2 phenotype
"CC(C)Cn1c(=O)n(C)c(=O)c2[nH]cnc21 [IBMX, 3-isobutyl-1-methylxanthine]",OVA-specific IL-17 response,Wild-type B6 mice,provoked a robust OVA-specific IL-17 response
"O=P1(O)OCC2OC(n3cnc4c(Nc5ccccc5)ncnc43)C(O)C2O1 (stereo not drawn) [N6, Phenyladenosine-3′,5′-cyclic monophosphate]",pro-Th2 phenotype of Gnas^ΔCD11c CD11c+ BM cells (IL-4 levels of co-cultured OT-2 CD4+ T cells),"[3]; BM cells incubated with cAMP analogue 50 μM for 24 h, washed, co-cultured with OT-2 T cells, FIG. 9a",abolished the pro-Th2 phenotype
C=C[C@@]1(C)CC(=O)[C@]2(O)[C@@]3(C)[C@@H](O)CCC(C)(C)[C@@H]3[C@H](O)[C@H](OC(C)=O)[C@@]2(C)O1 [colforsin],OVA-specific IL-17 response,Wild-type B6 mice,provoked a robust OVA-specific IL-17 response
